Source: PubChem BioAssay AID254 (DTP/NCI, 2004)
Values joined by “and” are separate entries in the source; they are usually repeats but may differ in a detail not shown here. Equal entries are not always repeated. Inconclusive results and toxic doses are left out.

Test system: L1210 leukemia iv in BDF1 mice, survival T/C
Experiment: NCI In Vivo Anticancer Drug Screen. Data for tumor model L1210 Leukemia (intravenous) in B6D2F1 (BDF1) mice
Conditions: higher = longer survival
Experimental: The antitumor activity of compounds was measured in mice bearing transplantable tumors. Survival or tumor size were measured and the results are expressed as the measurement made in the treated group (T) divided by the measurement made in the vehicle treated control group (C). The tumor model used in this assay is L1210 Leukemia (intravenous) in B6D2F1 (BDF1) mice

[1] = endpoint: mean survival time, dose: 7.0 mg/kg/injection, schedule: Q01DX001 (ip), vehicle: other
[2] = endpoint: mean survival time, dose: 33.0 mg/kg/injection, schedule: Q01DX001 (ip), vehicle: other

In the case of Nc1nc(=S)c2[nH]cnc2[nH]1, the T/C (endpoint: mean survival time, dose: 0.4 mg/kg/injection, schedule: Q01DX008 (ip), vehicle: alkali diluted with saline) is reported as 107 % of control, the T/C (endpoint: mean survival time, dose: 0.4 mg/kg/injection, schedule: Q06HX008 (ip), vehicle: alkali diluted with saline) is reported as 117 % of control and the T/C (endpoint: mean survival time, dose: 0.4 mg/kg/injection, schedule: Q12HX008 (ip), vehicle: alkali diluted with saline) is reported as 114 % of control. For the same compound, the T/C (endpoint: mean survival time, dose: 0.6 mg/kg/injection, schedule: Q01DX008 (ip), vehicle: alkali diluted with saline) was 114 % of control, the T/C (endpoint: mean survival time, dose: 0.6 mg/kg/injection, schedule: Q01HX008 (ip), vehicle: alkali diluted with saline) was 152 % of control and the T/C (endpoint: mean survival time, dose: 4.8 mg/kg/injection, schedule: Q01DX001 (ip), vehicle: alkali diluted with saline) was 156 % of control. The T/C (endpoint: mean survival time, dose: 115.0 mg/kg/injection, schedule: Q01DX001 (ip), vehicle: alkali diluted with saline) was 195 % of control, the T/C (endpoint: median survival time, dose: 20.0 mg/kg/injection, schedule: Q04DX002 (ip), vehicle: alkali diluted with saline) was 206 % of control and 227 % of control and the T/C (endpoint: median survival time, dose: 25.0 mg/kg/injection, schedule: Q04DX002 (ip), vehicle: alkali diluted with saline) was 198 % of control and 231 % of control.
For O=NN(CCCl)C(=O)NCCCl, the T/C [1] was 152 % of control and 175 % of control, the T/C (endpoint: mean survival time, dose: 10.0 mg/kg/injection, schedule: Q01DX001 (ip), vehicle: other) was 197 % of control and the T/C (endpoint: mean survival time, dose: 10.0 mg/kg/injection, schedule: Q01DX001 (ip), vehicle: saline + alcohol) was 347 % of control (2×) and 204 % of control. The T/C (endpoint: mean survival time, dose: 10.0 mg/kg/injection, schedule: Q04DX004 (ip), vehicle: other) was 256 % of control, the T/C (endpoint: mean survival time, dose: 15.0 mg/kg/injection, schedule: Q04DX004 (ip), vehicle: other) was 719 % of control and the T/C (endpoint: mean survival time, dose: 18.0 mg/kg/injection, schedule: Q01DX001 (ip), vehicle: saline + alcohol) was 263 % of control. For the same compound, the T/C (endpoint: mean survival time, dose: 20.0 mg/kg/injection, schedule: Q04DX004 (ip), vehicle: other) was 629 % of control, the T/C (endpoint: mean survival time, dose: 27.0 mg/kg/injection, schedule: Q01DX001 (ip), vehicle: other) was 335 % of control and 283 % of control and 316 % of control and the T/C (endpoint: mean survival time, dose: 27.0 mg/kg/injection, schedule: Q01DX001 (ip), vehicle: saline + alcohol) was 358 % of control. The T/C (endpoint: mean survival time, dose: 27.0 mg/kg/injection, schedule: Q01DX001 (oral), vehicle: other) was 481 % of control and 523 % of control and 549 % of control, the T/C (endpoint: mean survival time, dose: 30.0 mg/kg/injection, schedule: Q01DX001 (ip), vehicle: other) was 385 % of control and the T/C (endpoint: mean survival time, dose: 30.0 mg/kg/injection, schedule: Q04DX004 (ip), vehicle: other) was 621 % of control. For the same compound, the T/C (endpoint: mean survival time, dose: 31.0 mg/kg/injection, schedule: Q01DX001 (ip), vehicle: other) was 342 % of control and 248 % of control, the T/C (endpoint: mean survival time, dose: 39.0 mg/kg/injection, schedule: Q01DX001 (ip), vehicle: other) was 373 % of control and 400 % of control and 473 % of control and the T/C (endpoint: mean survival time, dose: 40.0 mg/kg/injection, schedule: Q01DX001 (oral), vehicle: other) was 553 % of control and 633 % of control and 678 % of control. The T/C (endpoint: mean survival time, dose: 49.0 mg/kg/injection, schedule: Q01DX001 (ip), vehicle: other) was 466 % of control and 478 % of control and 532 % of control, the T/C (endpoint: mean survival time, dose: 60.0 mg/kg/injection, schedule: Q01DX001 (oral), vehicle: other) was 434 % of control and 471 % of control and 625 % of control and the T/C (endpoint: mean survival time, dose: 62.0 mg/kg/injection, schedule: Q01DX001 (ip), vehicle: other) was 120 % of control and 297 % of control. The T/C (endpoint: median survival time, dose: 18.0 mg/kg/injection, schedule: Q## X001 (ip), vehicle: saline + alcohol) was 188 % of control, the T/C (endpoint: median survival time, dose: 30.0 mg/kg/injection, schedule: Q## X001 (ip), vehicle: saline + alcohol) was 241 % of control and the T/C (endpoint: median survival time, dose: 48.0 mg/kg/injection, schedule: Q## X001 (ip), vehicle: saline + alcohol) was 297 % of control.
With O=NN(CCCl)C(=O)N[C@H]1CCCC[C@H]1Cl the T/C (endpoint: mean survival time, dose: 25.0 mg/kg/injection, schedule: Q01DX001 (ip), vehicle: carboxymethylcellulose (CMC)) was 190 % of control and 262 % of control, the T/C (endpoint: mean survival time, dose: 51.0 mg/kg/injection, schedule: Q01DX001 (ip), vehicle: carboxymethylcellulose (CMC)) was 427 % of control and 435 % of control and the T/C (endpoint: mean survival time, dose: 101.0 mg/kg/injection, schedule: Q01DX001 (ip), vehicle: carboxymethylcellulose (CMC)) was 588 % of control and 767 % of control. For the same compound, the T/C (endpoint: mean survival time, dose: 203.0 mg/kg/injection, schedule: Q01DX001 (ip), vehicle: carboxymethylcellulose (CMC)) was 111 % of control and 202 % of control.
In the case of O=NN(CCCl)C(=O)NC1CCS(=O)(=O)C1 (centres undefined) (tested in a mixture with another compound), the T/C [1] is reported as 267 % of control, the T/C (endpoint: mean survival time, dose: 11.0 mg/kg/injection, schedule: Q01DX001 (ip), vehicle: other) is reported as 239 % of control and the T/C (endpoint: mean survival time, dose: 14.0 mg/kg/injection, schedule: Q01DX001 (oral), vehicle: other) is reported as 276 % of control. The T/C (endpoint: mean survival time, dose: 16.0 mg/kg/injection, schedule: Q01DX001 (ip), vehicle: other) was 281 % of control, the T/C (endpoint: mean survival time, dose: 22.0 mg/kg/injection, schedule: Q01DX001 (oral), vehicle: other) was 474 % of control and the T/C (endpoint: mean survival time, dose: 24.0 mg/kg/injection, schedule: Q01DX001 (ip), vehicle: other) was 281 % of control. The T/C (endpoint: mean survival time, dose: 32.0 mg/kg/injection, schedule: Q01DX001 (oral), vehicle: other) was 495 % of control, the T/C (endpoint: mean survival time, dose: 36.0 mg/kg/injection, schedule: Q01DX001 (ip), vehicle: other) was 232 % of control and the T/C (endpoint: mean survival time, dose: 48.0 mg/kg/injection, schedule: Q01DX001 (oral), vehicle: other) was 253 % of control. The T/C (endpoint: mean survival time, dose: 72.0 mg/kg/injection, schedule: Q01DX001 (oral), vehicle: other) was 213 % of control.
O=c1[nH]c(=O)n(C2CC(O)C(CO)O2)cc1F (centres undefined) was tested, and the T/C (endpoint: mean survival time, dose: 400.0 mg/kg/injection, schedule: Q01DX001 (ip), vehicle: saline) was 122 % of control.
In the case of NC(=S)N/N=C/c1ccccn1, the T/C (endpoint: mean survival time, dose: 5.0 mg/kg/injection, schedule: Q01HX008 (ip), vehicle: other) is reported as 105 % of control, the T/C (endpoint: mean survival time, dose: 5.0 mg/kg/injection, schedule: Q03HX008 (ip), vehicle: other) is reported as 166 % of control and the T/C (endpoint: mean survival time, dose: 8.0 mg/kg/injection, schedule: Q01DX008 (ip), vehicle: other) is reported as 176 % of control. The T/C (endpoint: mean survival time, dose: 8.0 mg/kg/injection, schedule: Q03HX008 (ip), vehicle: other) was 208 % of control, the T/C (endpoint: mean survival time, dose: 8.0 mg/kg/injection, schedule: Q06HX008 (ip), vehicle: other) was 176 % of control and the T/C (endpoint: mean survival time, dose: 8.0 mg/kg/injection, schedule: Q12HX008 (ip), vehicle: other) was 200 % of control. For the same compound, the T/C (endpoint: mean survival time, dose: 22.0 mg/kg/injection, schedule: Q01DX001 (ip), vehicle: other) was 111 % of control and the T/C [2] was 110 % of control.
With O=NN(CCCl)C(=O)NC1CS(=O)(=O)CS(=O)(=O)C1 the T/C (endpoint: mean survival time, dose: 8.0 mg/kg/injection, schedule: Q04DX004 (ip), vehicle: saline with Tween-80) was 177 % of control, the T/C (endpoint: mean survival time, dose: 12.0 mg/kg/injection, schedule: Q04DX004 (ip), vehicle: saline with Tween-80) was 529 % of control and the T/C (endpoint: mean survival time, dose: 18.0 mg/kg/injection, schedule: Q04DX004 (ip), vehicle: saline with Tween-80) was 687 % of control.
O=C1N[C@@H]([C@H]2CC[C@H](Cl)CN2)C(=O)N[C@H]1[C@H]1CC[C@H](Cl)CN1 was tested, and the T/C (endpoint: mean survival time, dose: 4.4 mg/kg/injection, schedule: Q01DX001 (ip), vehicle: saline) was 186 % of control, the T/C (endpoint: mean survival time, dose: 6.6 mg/kg/injection, schedule: Q01DX001 (ip), vehicle: saline) was 202 % of control and the T/C (endpoint: mean survival time, dose: 10.0 mg/kg/injection, schedule: Q01DX001 (ip), vehicle: saline) was 227 % of control. The T/C (endpoint: mean survival time, dose: 15.0 mg/kg/injection, schedule: Q01DX001 (ip), vehicle: saline) was 163 % of control.
For CC(CN1CC(=O)NC(=O)C1)N1CC(=O)NC(=O)C1 (centres undefined), the T/C (endpoint: mean survival time, dose: 108.0 mg/kg/injection, schedule: Q04DX003 (ip), vehicle: Klucel (hydroxypropylcellulose) (HPC)) was 165 % of control, the T/C (endpoint: mean survival time, dose: 180.0 mg/kg/injection, schedule: Q04DX003 (ip), vehicle: Klucel (hydroxypropylcellulose) (HPC)) was 176 % of control and the T/C (endpoint: mean survival time, dose: 300.0 mg/kg/injection, schedule: Q04DX003 (ip), vehicle: Klucel (hydroxypropylcellulose) (HPC)) was 191 % of control.
With COc1cccc2c1C(=O)c1c(O)c3c(c(O)c1C2=O)C[C@@](O)(C(C)=O)C[C@@H]3OC1CC(N)C(O)C(C)O1 (some centres undefined) the T/C (endpoint: mean survival time, dose: 3.0 mg/kg/injection, schedule: Q04DX003 (iv), vehicle: water) was 216 % of control, the T/C (endpoint: mean survival time, dose: 5.0 mg/kg/injection, schedule: Q01DX001 (iv), vehicle: saline) was 105 % of control and the T/C (endpoint: mean survival time, dose: 5.0 mg/kg/injection, schedule: Q04DX003 (iv), vehicle: water) was 121 % of control. For the same compound, the T/C (endpoint: mean survival time, dose: 10.0 mg/kg/injection, schedule: Q01DX001 (iv), vehicle: saline) was 115 % of control, the T/C (endpoint: mean survival time, dose: 14.0 mg/kg/injection, schedule: Q04DX003 (iv), vehicle: water) was 160 % of control and the T/C (endpoint: mean survival time, dose: 20.0 mg/kg/injection, schedule: Q01DX001 (iv), vehicle: saline) was 150 % of control. The T/C (endpoint: mean survival time, dose: 23.0 mg/kg/injection, schedule: Q04DX003 (iv), vehicle: water) was 84 % of control.
With O=NN(CCCl)C(=O)NC1CSCSC1 the T/C (endpoint: mean survival time, dose: 2.0 mg/kg/injection, schedule: Q01DX001 (ip), vehicle: other) was 106 % of control and 102 % of control, the T/C (endpoint: mean survival time, dose: 4.0 mg/kg/injection, schedule: Q01DX001 (ip), vehicle: other) was 109 % of control and the T/C (endpoint: mean survival time, dose: 4.5 mg/kg/injection, schedule: Q04DX004 (ip), vehicle: saline with Tween-80) was 293 % of control. For the same compound, the T/C (endpoint: mean survival time, dose: 7.0 mg/kg/injection, schedule: Q04DX004 (ip), vehicle: saline with Tween-80) was 443 % of control, the T/C (endpoint: mean survival time, dose: 8.0 mg/kg/injection, schedule: Q01DX001 (ip), vehicle: other) was 156 % of control and 161 % of control and the T/C (endpoint: mean survival time, dose: 11.0 mg/kg/injection, schedule: Q04DX004 (ip), vehicle: saline with Tween-80) was 735 % of control. For the same compound, the T/C (endpoint: mean survival time, dose: 16.5 mg/kg/injection, schedule: Q01DX001 (ip), vehicle: other) was 393 % of control and 311 % of control, the T/C (endpoint: mean survival time, dose: 16.5 mg/kg/injection, schedule: Q04DX004 (ip), vehicle: saline with Tween-80) was 1060 % of control and the T/C [2] was 490 % of control and 588 % of control.
